Results on two molecules are retold here after paper PMC9645344, “Serotonin-releasing agents with reduced off-target effects” (Molecular Psychiatry, 2022).

One experiment concerns C57BL/6N mice. In words: Forced-swim test (FST). To be noted: for immobility time in the FST versus vehicle: mice. The format is in vivo. The protocol: All in vivo experiments were performed in adult mice (>6 weeks old). For the photometry and microdialysis experiments, which were carried out in Florida, male C57BL/6J mice from The Jackson Laboratory (Bar Harbor, ME, USA) were group-housed in polycarbonate cages (GM500, Tecniplast, Buguggiate, Italy) with lights on from 7 a.m. to 7 p.m. Food and water were provided ad libitum. Photometry and microdialysis experiments were performed in accordance with a protocol approved by the Institutional Animal Care and Use Committee at Florida Atlantic University. For the behavioral experiments, which were carried out in Vienna, C57BL/6N mice from Charles River (Sulzfeld, Germany) were group-housed in polycarbonate cages with lights on from 7 a.m. to 7 p.m. Food and water were provided ad libitum. Behavioral experiments were performed in accordance with a protocol approved by the Austrian national ethical committee on animal care and use (Bundesministerium für Wissenschaft und Forschung: BMWFW-66.009/0016-WF/V/3b/2015). All animal procedures were conducted in agreement with the ARRIVE guidelines and the U.K. Animal (Scientific Procedures) Act, 1986, and associated guidelines, EU Directive 2010/63/EU for animal experiments. Mice were given at least 1 week to acclimate before being used in any experiments.
For behavioral assays, animals were assigned to treatment groups and injected with test drugs by an unblinded observer.
The FST was performed as previously described. In brief, mice were placed for 6 min in a beaker (diameter: 19 cm, height: 23 cm), halfway filled with water (22–23 °C), and the immobility time was quantified using the software Videotrack (Viewpoint, Champagne au Mont d’Or, France). Immobility was defined as the absence of any movement, except for those required to keep the head above the water. The time spent immobile during the final 4 min of the test was used as a measure of behavioral despair. Animal sample size was confirmed using a post hoc analysis of the achieved power using G*Power3.1 [29]. Using a significance level (α) of 0.05 and an effect size f = 2.5 and a sample size of 6 animals/group we achieved the commonly accepted statistical power (1−β) of 0.8.

A further experiment concerns the target T1, human DAT (Homo sapiens, UniProt Q01959).
T1 construct: expressed in transfected cells
Put plainly: DAT uptake inhibition assay in HEK293 cells ([3H]MPP+). Type of experiment: cell-based. The following applies: for DAT/SERT ratio: (1/DAT IC50)/(1/SERT IC50), higher values indicate higher DAT-selectivity. The protocol: Human embryonic kidney 293 (HEK293) cells stably expressing the human isoforms of either DAT or SERT were maintained in Dulbecco’s Modified Eagle Medium (DMEM), supplemented with 10% fetal calf serum at a subconfluent state in humidified atmosphere (5% CO2, 37 °C).
Uptake inhibition assays were performed as described earlier. Briefly, HEK293 cells stably expressing human SERT or DAT were seeded onto poly- D-lysine (PDL) coated 96-well plates (40,000 cells well^−1) the day before an experiment. Prior to the uptake inhibition assay, DMEM was replaced with Krebs-HEPES buffer (KHB, 25 mM HEPES, 120 mM NaCl, 5 mM KCl, 1.2 mM CaCl2, 1.2 mM MgSO4, and 5 mM D-glucose, pH 7.3) and the cells were preincubated with test drugs for 5 min at room temperature. Uptake assays were initiated by adding 20 nM [^3H]MPP^+ to DAT cells or 100 nM [^3H]5-HT to SERT cells. After 180 s (DAT) or 60 s (SERT), the tritiated substrate was removed by aspiration. Cells were washed once with ice-cold KHB, then lysed in 1% sodium dodecyl sulfate (SDS) and subjected to liquid scintillation counting to quantify tritium accumulated in each sample. Non-specific uptake was determined in the presence of mazindol (1 µM) for DAT or paroxetine (1 µM) for SERT and subtracted throughout.

In the next experiment the target is 5-HT2B receptor (Homo sapiens, UniProt P41595). Details: method as in PMID 30610839. To be noted: concentrations as high as 7 µM; cited from earlier work.
Sequence of 5-HT2B receptor (P41595 whole entry): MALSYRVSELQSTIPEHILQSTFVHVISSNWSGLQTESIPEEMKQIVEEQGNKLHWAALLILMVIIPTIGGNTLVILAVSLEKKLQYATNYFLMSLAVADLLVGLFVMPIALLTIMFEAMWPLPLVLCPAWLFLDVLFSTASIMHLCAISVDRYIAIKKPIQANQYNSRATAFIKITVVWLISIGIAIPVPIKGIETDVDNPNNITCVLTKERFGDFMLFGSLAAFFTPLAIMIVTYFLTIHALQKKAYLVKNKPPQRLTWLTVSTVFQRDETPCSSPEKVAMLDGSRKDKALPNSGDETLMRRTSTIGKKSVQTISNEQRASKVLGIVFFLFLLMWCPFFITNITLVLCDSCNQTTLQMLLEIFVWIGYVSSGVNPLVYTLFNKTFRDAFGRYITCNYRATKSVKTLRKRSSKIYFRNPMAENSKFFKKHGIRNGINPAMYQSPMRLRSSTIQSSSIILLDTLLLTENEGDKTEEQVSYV

T1 sequence (Q01959 whole entry): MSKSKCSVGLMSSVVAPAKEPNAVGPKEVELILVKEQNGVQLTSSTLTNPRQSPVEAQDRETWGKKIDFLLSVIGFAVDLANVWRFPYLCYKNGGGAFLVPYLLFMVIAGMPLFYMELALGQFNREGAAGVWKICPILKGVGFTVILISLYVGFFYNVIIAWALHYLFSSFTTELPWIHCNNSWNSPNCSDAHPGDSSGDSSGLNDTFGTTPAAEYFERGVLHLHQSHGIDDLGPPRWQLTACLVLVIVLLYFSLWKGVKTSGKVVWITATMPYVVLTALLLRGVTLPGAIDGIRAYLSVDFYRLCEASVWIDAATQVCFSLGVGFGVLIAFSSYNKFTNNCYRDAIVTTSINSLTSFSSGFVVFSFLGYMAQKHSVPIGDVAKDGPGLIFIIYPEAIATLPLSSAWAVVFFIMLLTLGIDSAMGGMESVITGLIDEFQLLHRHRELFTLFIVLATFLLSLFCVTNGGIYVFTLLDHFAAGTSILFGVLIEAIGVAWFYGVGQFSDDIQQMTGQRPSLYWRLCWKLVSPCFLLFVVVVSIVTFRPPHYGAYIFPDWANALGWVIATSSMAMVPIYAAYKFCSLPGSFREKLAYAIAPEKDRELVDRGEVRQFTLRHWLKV

The IC50 is the point on the concentration scale where inhibition reaches its midpoint. The low end stands for greater potency, the high end for weaker potency. As for `CN[C@@H](C)C(=O)c1ccc(C(F)(F)F)cc1` [S-4-TFMMC, 4-trifluoromethyl-N-methylcathinone], in the experiment with C57BL/6N mice (10 mg kg-1 intraperitoneal), the “time spent immobile in the FST, male and female mice” value was “significantly reduced the time spent immobile regardless of sex”; the “immobility time in the FST versus vehicle” value is “significantly differed from the vehicle group”. Further, on human DAT, inhibition was half-maximal at 190 µM (IC50) and the DAT/SERT ratio is listed as 0.05.

With `Cc1ccc(C(=O)[C@H](C)N)cc1` [S-4-MC, 4-methylcathinone], the “immobility time in the FST versus vehicle” value in the experiment with C57BL/6N mice (1 mg kg-1 intraperitoneal) is “significantly reduced immobility time versus vehicle”. Further, in the experiment on C57BL/6N mice (5 mg kg-1 intraperitoneal), the “time spent immobile in the FST, male and female mice” value is listed as “significantly reduced the time spent immobile regardless of sex”; the “immobility time in the FST versus vehicle” value is “significantly reduced immobility time versus vehicle”. In the experiment on C57BL/6N mice (10 mg kg-1 intraperitoneal), the “immobility time in the FST versus vehicle” value is “significantly reduced immobility time versus vehicle”. In addition, at 5-HT2B receptor, the “binding to the 5-HT2B receptor” value is recorded as “no binding”. On human DAT, the IC50 stood at 6.65 µM and the DAT/SERT ratio was 1.9.
